20 compounds from EP4008716A1, “NOVEL INHIBITORS OF INSULIN-LIKE GROWTH FACTOR 2 MRNA BINDING PROTEINS” (Martin-Luther-Universität Halle-Wittenberg, priority 2020, dated 2022) can be followed below.

One test deals with ES-2 cells. The test is described as follows: Cytotoxicity / cell vitality by cell confluency (IncuCyte live-cell imaging) relative to DMSO controls. It counts as cell-based. Conditions: Homo sapiens, ovarian cancer-derived ES-2 cells, 72 h post compound application, eleven concentrations, two-fold dilution from 20µM, mean of three independent studies. Here is the method:
All novel inhibitors were explored for their cytotoxic activity in ovarian cancer-derived ES-2 cells. In these cell models, BTYNB was prior shown to impair cell vitality and metastatic potential in vitro and cancer mouse models (15). For the respective studies ES-2 cells were plated and exposed to increasing concentration of the compounds and cell vitality was monitored by determining cell confluency relative to DMSO controls using an IncuCyte cell imaging system, essentially as described recently (15). For determining the impact of the developed compounds on ES-2 cell vitality, cells were cultured in Dulbecco's modified eagle medium (DMEM) containing phenol red, 4.5 g/L D-Glucose, 0.11 g/L sodium pyruvate, 10% (v/v) fetal bovine serum (FBS) and 2 mM GlutaMAX (Sigma-Aldrich, Darmstadt, Germany). Cells were maintained in under humidified conditions at 37 °C, 5% CO2. For cytotoxicity studies, cells were seeded in 96-well flat-bottom plates at 2 x 10^3 cells per well in 100 µL supplemented DMEM and incubated for 24 h prior to addition of BTYNB derivatives. Compounds were analyzed at eleven concentrations using a two-fold dilution with an initial compound concentration of 20µM in DMSO (solvent). Cells treated with 0.002% (v/v) DMSO served as controls. Cytotoxicity of compound concentrations was determined 72 h post compound application by monitoring cell confluency using an IncuCyte Systems for Live-Cell Imaging. Cell confluency was determined with the IncuCyte 2019B Rev2 software. Confluency of controls was set to 1 (100%) and altered confluency at distinct compound concentrations was calculated as relative confluency. The mean relative confluency at compound concentrations was analyzed in three independent studies with three technical replicates each. The mean values of three analyses were plotted against the logarithmic concentration of compounds and fitted by the non-linear module [Sigmoidal, 4PL, X is log(concentration)] using GraphPad Prism V9(86) for macOS. In Table 1 compounds with EC50 values, indicating the potency of the 58 developed compounds to impair cell vitality, are listed. […] Table 2: EC-values of the synthesized compounds of formula (I)
What is called EC50 is the concentration needed to bring the measured effect to its halfway point. `Cc1ccc(C(=O)Nc2sc(Cc3ccccc3)cc2C(N)=O)o1` [compound 35, N-[3-(Aminocarbonyl)-5-benzyl-2-thienyl]-5-methyl-2-furamide]: a half-maximal response (EC50) required 1.34 µM.

On to `O=c1[nH]c(-c2ccc(OCc3ccccc3F)cc2)nc2ccccc12` [compound 4, 2-{4-[(2-Fluorobenzyl)oxy]phenyl}-4(3H)-quinazolinone], for which the response was half-maximal at 0.25 µM (EC50).

As for `NC(=O)c1ccccc1NC(=O)c1cccc(COc2cccc(Cl)c2)c1` [compound 17, 2-({3-[(3-Chlorophenoxy)methyl]benzoyl}amino)benzamide], the EC50 worked out at 0.675 µM.

In turn, `Cc1ccc(C(=O)Nc2ccccc2C(N)=O)s1` [compound 2, N-[2-(aminocarbonyl)phenyl]-5-methyl-2-thiophenecarboxamide] registered an EC50 of 2.06 µM.

Take `COc1ccc(C(=O)Nc2ccccc2C(N)=O)cc1Cl` [compound 16, N-[2-(aminocarbonyl)phenyl]-3-chloro-4-methoxybenzamide]: the midpoint of the response, the EC50, lay at 5.84 µM.

As to `NC(=O)c1cc(Cc2ccccc2)sc1NC(=O)CCc1ccccc1` [compound 39, 5-Benzyl-2-[(3-phenylpropanoyl)amino]-3-thiophenecarboxamide], a half-maximal response (EC50) required 6.21 µM.

For `COc1ccc(C(=O)Nc2sc(Cc3ccccc3)cc2C(N)=O)cc1COc1ccc(Cl)cc1Cl` [compound 47, 5-Benzyl-2-{3-[(2,4-dichlorophenoxy)methyl]-4-methoxybenzamido}thiophene-3-carboxamide], a half-maximal response (EC50) required 0.293 µM.

With `COc1ccc(C(=O)Nc2sc(Cc3ccccc3)cc2C(N)=O)cc1COc1c(Cl)cccc1Cl` [compound 53, 5-Benzyl-2-{3-[(2,6-dichlorophenoxy)methyl]-4-methoxybenzamido}thiophene-3-carboxamide], it took 2.6 µM to reach a half-maximal effect (EC50).

Regarding `NC(=O)c1ccccc1NC(=O)CN1CCN(Cc2ccc(F)cc2Cl)CC1` [compound 25, 2-({[4-(2-Chloro-4-fluorobenzyl)-1-piperazinyl]acetyl}amino)benzamide], the 50% effective concentration (EC50) stood at 3.17 µM.

On to `NC(=O)c1ccccc1NC(=O)CN1CCN(Cc2ccc(Cl)cc2)CC1` [compound 23, 2-({[4-(4-Chlorobenzyl)-1-piperazinyl]acetyl}amino)benzamide], for which a half-maximal effect (EC50) was put at 2.99 µM.

`COc1cc(-c2nc3ccccc3c(=O)[nH]2)ccc1OCc1ccccc1[N+](=O)[O-]` [compound 3, 2-{3-Methoxy-4-[(2-nitrobenzyl)oxy]phenyl}-4(3H)-quinazolinone] returned a 50% effective concentration (EC50) of 0.476 µM.

The compound `NC(=O)c1ccccc1NC(=O)c1ccc(Cl)c(Cl)c1` [compound 12, N-[2-(aminocarbonyl)phenyl]-3,4-dichlorobenzamide] registered an EC50 of 1.88 µM.

Compound `COc1ccc(C(=O)Nc2sc(C(C)C)cc2C(N)=O)cc1COc1ccccc1Cl` [compound 46, 2-({3-[(2-Chlorophenoxy)methyl]-4-methoxybenzoyl}amino)-5-isopropyl-3-thiophenecarboxamide] had a half-maximal effective concentration (EC50) of 2.23 µM.

On to `COc1ccc(C(=O)Nc2sc(Cc3ccccc3)cc2C(N)=O)cc1COc1cccc(Cl)c1Cl` [compound 45, 5-Benzyl-2-({3-[(2,3-dichlorophenoxy)methyl]-4-methoxybenzoyl}amino)-3-thiophenecarboxamide], for which it took 0.401 µM to reach a half-maximal effect (EC50).

With `COc1ccc(C(=O)Nc2sc(Cc3ccccc3)cc2C(N)=O)cc1OCc1ccccc1Cl` [compound 48, 2-[3-(2-Chlorobenzyloxy)-4-methoxybenzamido]-5-benzylthiophene-3-carboxamide], the midpoint of the response, the EC50, lay at 1.09 µM.

`CC(C)c1cc(C(N)=O)c(NC(=O)Cc2ccc(Cl)c(Cl)c2)s1` [compound 42, 2-{[(3,4-Dichlorophenyl)acetyl]amino}-5-isopropyl-3-thiophenecarboxamide] showed an EC50 of 2.45 µM.

For `COc1ccc(C(=O)Nc2sc(Cc3ccccc3)cc2C(N)=O)cc1COc1cccc(Cl)c1` [compound 51, 5-Benzyl-2-{3-[(3-chlorophenoxy)methyl]-4-methoxybenzamido}thiophene-3-carboxamide], the half-maximal effective concentration (EC50) was found to be 0.355 µM.

`Cc1cc2c(=O)[nH]c(Cc3ccccc3)nc2s1` [compound 7, 2-Benzyl-6-methylthieno[2,3-d]pyrimidin-4(3H)-one]: the EC50 amounted to 4.84 µM.

The test is the same for the next values; noted with them: ovarian cancer-derived ES-2 cells, 72 h post compound application, eleven concentrations, two-fold dilution from 20µM, mean of three independent studies.
Compound “2-({4-[(2-Bromophenoxy)methyl]benzoyl}amino)-5-isopropyl-3-thiophenecarboxamide [compound 57]” returned an EC50 of 3.74 µM.

A further test relates to ES-2 cells. Described as above. It counts as cell-based. The settings on record: Homo sapiens, determined in 11 analyses with three technical replicates each.
Consider `NC(=O)c1ccccc1N=Cc1ccc(Br)s1` [BTYNB, 2-{[(5-bromo-2-thienyl)methylene]amino}benzamide], for which a half-maximal response (EC50) required 5.9 µM.
